Laboratory results reported in patent US20240239738A1, “(S)-3-AMINO-4-(DIFLUOROMETHYLENE)CYCLOHEXENE AND CYCLOHEXANE CARBOXYLIC ACID AND USES THEREOF AS SELECTIVE INACTIVATORS OF HUMAN ORNITHINE AMINOTRANSFERASE (hOAT)” (Northwestern University, priority 2021, published 2024).
Where two headings read alike, the source gives them in different places. Values belong to the compound of their own block, whether it stands above or below them.

Experiments:
[1] = biological target: T1, hOAT (Homo sapiens, UniProt P04181); experiment: Time-dependent dialysis (reactivation) of inhibited hOAT; type: biochemical; details: hOAT partially or fully inhibited (0.6-2.0 equivalents of 14); up to 91 h of dialysis
T1 construct: made in house
T1 sequence (P04181 with tags, fused parts or gaps): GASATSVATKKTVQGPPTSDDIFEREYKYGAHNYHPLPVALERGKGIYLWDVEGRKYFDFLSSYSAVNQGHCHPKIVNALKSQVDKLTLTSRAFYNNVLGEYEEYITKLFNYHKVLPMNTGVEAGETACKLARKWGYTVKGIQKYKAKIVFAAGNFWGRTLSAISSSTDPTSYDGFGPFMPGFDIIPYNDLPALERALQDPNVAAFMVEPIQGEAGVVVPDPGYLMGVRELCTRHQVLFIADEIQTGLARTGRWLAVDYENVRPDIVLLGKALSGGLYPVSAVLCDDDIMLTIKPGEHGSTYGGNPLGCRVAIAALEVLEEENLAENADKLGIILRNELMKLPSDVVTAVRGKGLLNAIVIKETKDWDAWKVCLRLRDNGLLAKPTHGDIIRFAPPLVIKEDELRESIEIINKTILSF
Protocol: Previously, five-membered ring analogs 5 and 9 were identified as partially irreversible inhibitors of GABA-AT, with the formation of the tight-binding adducts.^29-30 Thus, time-dependent reactivation experiments of hOAT for cyclohexene analog 14 were carried out to determine if similar reversible components were also involved during the inactivation. After hOAT activity was partially or fully abolished by 0.6-2.0 equivalents of 14, aliquots at different time intervals were collected and assayed for the return of enzyme activity.
The dialysis experiment was conducted using previous protocols.^6, 8-9

[2] = in vivo PK profiles; details: for Cmax: read-out: C0/Cmax; for Kp at 0.25 h: read-out: B/P ratio @0.25 h
[3] = biological target: T1, hOAT; details: cited from earlier work
[4] = biological target: T2, GABA-AT (Sus scrofa, UniProt P80147); experiment: Coupled enzyme assay, time-dependent inactivation of GABA-AT; type: biochemical, pig
T2 construct: GABA-AT was isolated from pig brains and purified according to a literature procedure; from tissue; host or cells: pig brain
T2 sequence (P80147 29-500): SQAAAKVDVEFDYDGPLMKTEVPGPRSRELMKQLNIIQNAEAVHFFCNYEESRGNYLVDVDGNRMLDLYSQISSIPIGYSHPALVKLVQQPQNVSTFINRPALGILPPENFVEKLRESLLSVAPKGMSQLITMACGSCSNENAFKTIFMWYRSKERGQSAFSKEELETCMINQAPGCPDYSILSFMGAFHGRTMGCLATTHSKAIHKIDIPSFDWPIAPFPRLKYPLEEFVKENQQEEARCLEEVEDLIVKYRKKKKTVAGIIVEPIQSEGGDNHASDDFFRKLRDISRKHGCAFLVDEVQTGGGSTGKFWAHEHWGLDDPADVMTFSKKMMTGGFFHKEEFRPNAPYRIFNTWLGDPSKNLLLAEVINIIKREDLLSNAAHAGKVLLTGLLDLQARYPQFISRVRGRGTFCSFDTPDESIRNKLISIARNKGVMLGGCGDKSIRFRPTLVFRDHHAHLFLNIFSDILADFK
Protocol: (§1) hOAT and PYCR1 were expressed, grown, and purified according to literature procedures.^3-4 GABA-AT was isolated from pig brains and purified according to a literature procedure.^5 Coupled enzyme assays for GABA-AT, hOAT, Ala-AT, and Asp-AT were carried out according to previous procedures.^6-7

[5] = biological target: T1, hOAT; experiment: Coupled enzyme assay, time-dependent inactivation of hOAT; type: biochemical; details: for Ki / kinact / kinact/KI: hOAT
Protocol: as §1

[6] = test system: alanine aminotransferase (Ala-AT); experiment: Coupled enzyme assay, inhibition of Ala-AT; type: biochemical; details: at high concentrations, up to 20 mM
Protocol: as §1

[7] = test system: aspartate aminotransferase (Asp-AT); experiment: Coupled enzyme assay, inhibition of Asp-AT; type: biochemical; details: at high concentrations, up to 20 mM
Protocol: as §1

[8] = biological target: T1, hOAT; experiment: Fluoride ion release on inactivation of hOAT; type: biochemical; details: for F^− Release: enzyme 1.34 μM monomer; for Fluoride ions released per active site: excess of inactivator
From the text: Different equivalents of fluoride ions can be released in PLP and PMP turnover pathways. If PMP is formed in the turnover mechanism, it cannot be converted back to PLP in the absence of α-KG, which results in at most two equivalents of fluoride ion released (pathway a); more equivalents of fluoride ion would be released in the presence of α-KG if PMP is formed after the fluoride ion release step (pathway a1). If PLP is regenerated during the turnover mechanism, at least two equivalents of fluoride ions will be released in the absence of α-KG (pathway b), which should be close to the equivalents in the presence of α-KG. Based on the partition ratio and the confirmed inactivation mechanism for 14, the theoretical equivalents of fluoride ions, which are released per enzyme active site in different turnover pathways, can be calculated in the presence/absence of α-KG (Table 3). The concentration of released fluoride ions can be monitored by a fluoride ion-selective electrode. When OAT was inactivated with an excess of 14, 2.95 equivalents of fluoride ions were released in the presence of α-KG and 2.66 equivalents of fluoride ions were released in the absence of α-KG (Table 3).
The fluoride ion release assay was conducted using previous protocols.^2 The final concentration of hOAT in the sample was determined to be 61.7±4.1 ug/mL (monomer, 1.34±0.12 μM) via BSA assay and calculation of dilution. A calibration curve of voltage (V, mV) was generated from varying concentrations of NaF (F, μM) to get the equation: F^−=10^((V−181.4)/−54.21). For accurate detection of fluoride ion concentration, 2.0 μM of fluoride ion was added to each control and sample. The number of fluoride ions released per active site was calculated by the ratio of the fluoride ion release concentration and hOAT concentration.

[9] = biological target: T1, hOAT; experiment: Partition ratio by titrating hOAT with inactivator; type: biochemical; details: turnover number minus one
From the text: Usually, the partition ratio is used to determine the ratio of degradation and inactivation, calculated by titrating the enzyme with varying equivalents of inactivator. Ideally, a linear relationship (between enzyme activity remaining and equivalents of compounds) can be extrapolated to yield the exact equivalents (the intercept with the x-axis, turnover number) required to inactivate the enzyme completely. Since this obtained number includes the one molecule of inactivator required to inactivate one enzyme monomer, the partition ratio is the turnover number minus one. Therefore, the partition ratios of 5 and 14 were determined by titrating hOAT with varying equivalents of inactivators (FIG. 21). From this, we determined the partition ratio of 5 to be 4.9 and the partition ratio of 14 to be 0.6. The enlarged ring not only enhances the potency and selectivity against hOAT but also improves the efficiency of the inactivation.
The partition ratio was calculated using previous protocols.^6, 8-9

[10] = values marked b from the slope of kobs vs [I], read-out: kinact/KI (converted)

SMILES: N[C@H]1C[C@@H](C(=O)O)CC1=C(F)F [Compound 5, reference compound]
return of enzyme activity on dialysis [1]: fully irreversible inhibitor

SMILES: N[C@H]1C=C(C(=O)O)CC1=C(F)F [Compound 9, reference compound]
AUCinf ([2]; IV, 3 mg/kg): 653.80 ng·h/mL | AUClast ([2]; IV, 3 mg/kg): 634.12 ng·h/mL | C0/Cmax ([2]; IV, 3 mg/kg): 2376.08 ng/mL | CL ([2]; IV, 3 mg/kg): 76.48 mL/min/kg | T1/2 ([2]; IV, 3 mg/kg): 30.6 min | VSS ([2]; IV, 3 mg/kg): 1.75 L/kg | % F ([2]; PO, 10 mg/kg): 42% | AUCinf ([2]; PO, 10 mg/kg): 1006.60 ng·h/mL | AUClast ([2]; PO, 10 mg/kg): 881.20 ng·h/mL | C0/Cmax ([2]; PO, 10 mg/kg): 1575.74 ng/mL | Tmax ([2]; PO, 10 mg/kg): 15 min | kinact/KI ([3]; from ref 29): 127 M⁻¹ s⁻¹ | Ki ([3]; from ref 40): 65 ± 10 µM | kinact/KI ([3]; from ref 40): 14.5 M⁻¹ s⁻¹

Ki [4]: 1310 ± 400 µM | kinact [4]: 0.000417 s⁻¹ | kinact/KI [4, 10]: 0.317 M⁻¹ s⁻¹ | Ki [5]: 1270 ± 200 µM | kinact [5]: 0.00193 s⁻¹ | kinact/KI [5]: 1.52 M⁻¹ s⁻¹
SMILES: N[C@H]1C[C@@H](C(=O)O)CCC1=C(F)F [Compound 12, (1S,3S)-3-amino-4-(difluoromethylene)cyclohexane-1-carboxylic acid]

Ki [4]: > 13100 µM | kinact [4]: > 0.00317 s⁻¹ | kinact/KI [4, 10]: 0.25 M⁻¹ s⁻¹ | Ki [5]: 1480 ± 210 µM | kinact [5]: 0.0015 s⁻¹ | kinact/KI [5]: 1.07 M⁻¹ s⁻¹
SMILES: N[C@H]1C[C@H](C(=O)O)CCC1=C(F)F [Compound 13, (1R,3S)-3-Amino-4-(difluoromethylene)cyclohexane-1-carboxylic acid]

inhibitory activities against Ala-AT [6]: little or no inhibitory activities | AUC(0-inf) ([2]; in vivo, iv, 10 mg/kg): 2490 ng·h/mL | AUC(0-t) ([2]; in vivo, iv, 10 mg/kg): 2470 ng·h/mL | clearance ([2]; in vivo, iv, 10 mg/kg): 66.9 mL/min/kg | half-life ([2]; in vivo, iv, 10 mg/kg): 9.6 min | Cmax ([2]; in vivo, iv, 10 mg/kg): 14800 ng/mL | Vd ([2]; in vivo, iv, 10 mg/kg, read-out: VSS): 0.64 L/kg | AUC(0-inf) ([2]; in vivo, po, 30 mg/kg): 4330 ng·h/mL | AUC(0-t) ([2]; in vivo, po, 30 mg/kg): 4260 ng·h/mL | bioavailability ([2]; in vivo, po, 30 mg/kg): 58% | Cmax ([2]; in vivo, po, 30 mg/kg): 3430 ng/mL | Tmax ([2]; in vivo, po, 30 mg/kg, read-out: Tmax): 15 min | Kp at 0.25 h ([2]; in vivo, IV, 10 mg/kg): 0.05 | Kp at 0.25 h ([2]; in vivo, PO, 30 mg/kg): 0.01 | DMPK properties ([2]; preliminary assessment): favorable DMPK properties | inhibitory activities against Asp-AT [7]: little or no inhibitory activities | Ki [4]: > 1240 µM | kinact [4]: > 0.006 s⁻¹ | kinact/KI ([4]; read-out: kinact/KI (converted)): 4.83 M⁻¹ s⁻¹ | kinact/KI ([4]; values marked b from the slope of kobs vs [I]): 0.29 ± 0.01^b mM^−1min^−1 | F^− Release ([8]; with α-KG): 3.95 µM | Fluoride ions released per active site ([8]; with α-KG): 2.95 equiv | F^− Release ([8]; without α-KG): 3.57 µM | Fluoride ions released per active site ([8]; without α-KG): 2.66 equiv | partition ratio [9]: 0.6 | return of enzyme activity on dialysis [1]: no enzyme activity recovered | Ki [5]: 12 ± 2 µM | kinact [5]: 0.00323 s⁻¹ | kinact/KI [5]: 270 M⁻¹ s⁻¹ | times more efficient/potent as an inactivator of hOAT than the comparator ([5]; versus 10 (b129 prints 7), by kinact/KI): 18.6
SMILES: N[C@H]1C=C(C(=O)O)CCC1=C(F)F [Compound 14, (S)-3-Amino-4-(difluoromethylene)cyclohex-1-ene-1-carboxylic acid]

Ki [4]: > 2490 µM | kinact [4]: > 0.00367 s⁻¹ | kinact/KI [4, 10]: 1.45 M⁻¹ s⁻¹ | Ki [5]: 98 ± 14 µM | kinact [5]: 0.0009 s⁻¹ | kinact/KI [5]: 9.17 M⁻¹ s⁻¹
SMILES: N[C@H]1CC(C(=O)O)=CCC1=C(F)F [Compound 15, (S)-5-Amino-4-(difluoromethylene)cyclohex-1-ene-1-carboxylic acid]
